In US20160108039A1, “TRIAZOLOPYRIDINES AS THROMBIN INHIBITORS FOR THE TREATMENT OF THROMBOEMBOLIC DISEASES” (BAYER PHARMA AKTIENGESELLSCHAFT, priority 2013, published 2016):

Assays:
[1] = target: T1, thrombin (Homo sapiens, UniProt P00734); assay: Measurement of the thrombin inhibition in buffer; type: biochemical; conditions: human thrombin 0.06 nmol/l in Tris buffer pH 7.4, 22° C., substrate Boc-Asp(OBzl)-Pro-Arg-AMC; in some cases means of individual determinations
Procedure: To determine the thrombin inhibition of the substances listed above, a biochemical test system is constructed in which the conversion of a thrombin substrate is used for determining the enzymatic activity of human thrombin. Here, thrombin cleaves aminomethylcoumarin, which is measured fluorescently, from the peptic substrate. The determinations are carried out in microtitre plates.
Substances to be tested are dissolved in various concentrations in dimethyl sulphoxide and incubated for 15 min with human thrombin (0.06 nmol/l dissolved in 50 mmol/l of Tris buffer [C,C,C-tris(hydroxymethyl)aminomethane], 100 mmol/l of sodium chloride, 0.1% BSA [bovine serum albumin], pH 7.4) at 22° C. The substrate (5 μmol/l Boc-Asp(OBzl)-Pro-Arg-AMC from Bachem) is then added. After 30 min of incubation, the sample is excited at a wavelength of 360 nm and the emission is measured at 460 nm. The measured emissions of the test mixtures with test substance are compared to the control mixtures without test substance (only dimethyl sulphoxide instead of test substance in dimethyl sulphoxide) and IC50 values are calculated from the concentration/activity relationships. Representative activity data from this test are given in Table 1 below (in some cases as means of individual determinations): […]

[2] = target: T1, thrombin; assay: Thrombin-inhibitory activity in plasma samples (ecarin-activated); type: biochemical; conditions: citrate plasma, ecarin activation, fluorogenic thrombin substrate; read at about 70% of maximum signal (about 12 min); in some cases means
Procedure: To determine the inhibition of thrombin in plasma samples, plasma prothrombinase is activated by ecarin. Thrombin activity and/or its inhibition by potential inhibitors is/are then measured fluorescently by addition of a substrate.
The substances to be tested are dissolved in various concentrations in dimethyl sulphoxide and diluted with water. In white 96-well flat-bottomed plates, 20 μl of substance dilution are mixed with 20 μl of ecarin solution (ecarin reagent, from Sigma E-0504, final concentration 20 mU per reaction) in Ca buffer (200 mM Hepes+560 mM sodium chloride+10 mM calcium chloride+0.4% PEG) or with 20 μl of Ca buffer (as unstimulated control). Furthermore, 20 μl of fluorogenic thrombin substrate (from Bachem 1-1120, final concentration 50 μmol/l) and 20 μl of citrate plasma (from Octapharma) are added, and the mixture is homogenized well. The plate is measured in a SpectraFluorplus Reader using a 360 nm excitation filter and a 465 nm emission filter every minute over 20 minutes. […] Representative activity data from this test are given in Table 2 below (in some cases as means of individual determinations): […]

Structure (SMILES) | IC50 [1] | IC50 [2]
COc1cc(C(=O)N2CC(C)(CCO)OCC2(C)C)cn2nc(NCc3cccc(Cl)c3)nc12 (single isomer, unassigned) [Example 33, {2-[(3-Chlorobenzyl)amino]-8-methoxy[1,2,4]triazolo[1,5-a]pyridin-6-yl}[2-(2-hydroxyethyl)-2,5,5-trimethylmorpholin-4-yl]methanone] | 4.5 nM | 11 nM
COc1cc(C(=O)N2CC(C)(CC(C)O)OCC2(C)C)cn2nc(NCc3cccc(Cl)c3)nc12 (single isomer, unassigned) [Example 34, {2-[(3-Chlorobenzyl)amino]-8-methoxy[1,2,4]triazolo[1,5-a]pyridin-6-yl}[2-(2-hydroxypropyl)-2,5,5-trimethylmorpholin-4-yl]methanone] | 3.9 nM | 19 nM
COc1cc(C(=O)N2CC(C)(CC(C)O)OCC2(C)C)cn2nc(NCc3cccc(Cl)c3)nc12 (single isomer, unassigned) [Example 35, {2-[(3-Chlorobenzyl)amino]-8-methoxy[1,2,4]triazolo[1,5-a]pyridin-6-yl}[2-(2-hydroxypropyl)-2,5,5-trimethylmorpholin-4-yl]methanone] | 2.4 nM | 8.7 nM
COc1cc(C(=O)N2CC(C)(CC(C)O)OCC2(C)C)cn2nc(NCc3cccc(Cl)c3)nc12 (single isomer, unassigned) [Example 36, {2-[(3-Chlorobenzyl)amino]-8-methoxy[1,2,4]triazolo[1,5-a]pyridin-6-yl}[2-(2-hydroxypropyl)-2,5,5-trimethylmorpholin-4-yl]methanone] | 54 nM | 325 nM
COc1cc(C(=O)N2CC(C)(CC(C)O)OCC2(C)C)cn2nc(NCc3cccc(Cl)c3)nc12 (single isomer, unassigned) [Example 37, {2-[(3-Chlorobenzyl)amino]-8-methoxy[1,2,4]triazolo[1,5-a]pyridin-6-yl}[2-(2-hydroxypropyl)-2,5,5-trimethylmorpholin-4-yl]methanone] | 67 nM | 112 nM
COc1cc(C(=O)N2CC(C)(CC(C)O)OCC2(C)C)cn2nc(NCc3cccc(Cl)c3)nc12 (single isomer, unassigned) [Example 39, {2-[(3-Chlorobenzyl)amino]-8-methoxy[1,2,4]triazolo[1,5-a]pyridin-6-yl}[2-(2-hydroxypropyl)-2,5,5-trimethylmorpholin-4-yl]methanone] | 30 nM | 34 nM
COc1cc(C(=O)N2CC(C)OCC2C(C)(C)O)cn2nc(NCc3cccc(Cl)c3)nc12 (single isomer, unassigned) [Example 40, {2-[(3-Chlorobenzyl)amino]-8-methoxy[1,2,4]triazolo[1,5-a]pyridin-6-yl}[5-(2-hydroxypropan-2-yl)-2-methylmorpholin-4-yl]methanone] | 31 nM | 75 nM
COc1cc(C(=O)N2CC(C)(CC(C)O)OC[C@H]2C)cn2nc(NCc3cccc(Cl)c3)nc12 (single isomer, unassigned) [Example 41] | 1.3 nM | 4.1 nM
COc1cc(C(=O)N2CC(C)(C)OCC2CC(C)O)cn2nc(NCc3cccc(Cl)c3)nc12 (single isomer, unassigned) [Example 49, {2-[(3-Chlorobenzyl)amino]-8-methoxy[1,2,4]triazolo[1,5-a]pyridin-6-yl}[5-(2-hydroxypropyl)-2,2-dimethylmorpholin-4-yl]methanone] | 19 nM | 24 nM
COc1cc(C(=O)N2CC(C)(CCO)OCC2CF)cn2nc(NCc3cccc(Cl)c3)nc12 (single isomer, unassigned) [Example 53, {2-[(3-Chlorobenzyl)amino]-8-methoxy[1,2,4]triazolo[1,5-a]pyridin-6-yl}[5-(fluoromethyl)-2-(2-hydroxyethyl)-2-methylmorpholin-4-yl]methanone] | 6.9 nM | 24 nM
COc1cc(C(=O)N2CC(C)(CCO)OCC2CF)cn2nc(NCc3cccc(Cl)c3)nc12 (single isomer, unassigned) [Example 54, {2-[(3-Chlorobenzyl)amino]-8-methoxy[1,2,4]triazolo[1,5-a]pyridin-6-yl}[5-(fluoromethyl)-2-(2-hydroxyethyl)-2-methylmorpholin-4-yl]methanone] | 100 nM | 611 nM
COc1cc(C(=O)N2CC(C)(CCO)OCC2C(F)F)cn2nc(NCc3cccc(Cl)c3)nc12 (single isomer, unassigned) [Example 55, {[(3-Chlorobenzyl)amino]-8-methoxy[1,2,4]triazolo[1,5-a]pyridin-6-yl}[5-(difluoromethyl)-2-(2-hydroxyethyl)-2-methylmorpholin-4-yl]methanone] | 9.6 nM | 65 nM
COc1cc(C(=O)N2CC(C)(CC(C)O)OCC2CF)cn2nc(NCc3cccc(Cl)c3)nc12 (single isomer, unassigned) [Example 56, {[(3-Chlorobenzyl)amino]-8-methoxy[1,2,4]triazolo[1,5-a]pyridin-6-yl}[5-(fluoromethyl)-2-(2-hydroxypropyl)-2-methylmorpholin-4-yl]methanone] | 1.3 nM | 5.9 nM
CCC1C(=O)N2CCC2CN1C(=O)c1cc(OC)c2nc(NCc3cccc(Cl)c3)nn2c1 (single isomer, unassigned) [Example 59, 4-({2-[(3-Chlorobenzyl)amino]-8-methoxy[1,2,4]triazolo[1,5-a]pyridin-6-yl}carbonyl)-3-ethyl-1,4-diazabicyclo[4.2.0]octan-2-one] | 8.3 nM | 11 nM
COCC1C(=O)N2CCC2CN1C(=O)c1cc(OC)c2nc(NCc3cccc(Cl)c3)nn2c1 (single isomer, unassigned) [Example 60, 4-({2-[(3-Chlorobenzyl)amino]-8-methoxy[1,2,4]triazolo[1,5-a]pyridin-6-yl}carbonyl)-3-(methoxymethyl)-1,4-diazabicyclo[4.2.0]octan-2-one] | 26 nM | 23 nM
COc1cc(C(=O)N2CC3CCN3C(=O)C2C)cn2nc(NCc3cccc(Cl)c3)nc12 (single isomer, unassigned) [Example 61, 4-({2-[(3-Chlorobenzyl)amino]-8-methoxy[1,2,4]triazolo[1,5-a]pyridin-6-yl}carbonyl)-3-methyl-1,4-diazabicyclo[4.2.0]octan-2-one] | 23 nM | 17 nM
COc1cc(C(=O)N2CC3(CC3)NC(=O)C2C)cn2nc(NCc3cccc(Cl)c3)nc12 (single isomer, unassigned) [Example 62, 7-({2-[(3-Chlorobenzyl)amino]-8-methoxy[1,2,4]triazolo[1,5-a]pyridin-6-yl}carbonyl)-6-methyl-4,7-diazaspiro[2.5]octan-5-one] | 17 nM | 39 nM
CCC1C(=O)NC(C)CN1C(=O)c1cc(OC)c2nc(NCc3cccc(Cl)c3)nn2c1 (single isomer, unassigned) [Example 63, 4-({2-[(3-Chlorobenzyl)amino]-8-methoxy[1,2,4]triazolo[1,5-a]pyridin-6-yl}carbonyl)-3-ethyl-6-methylpiperazin-2-one] | 9.8 nM | 24 nM
COc1cc(C(=O)N2CC(C)(C)OCC2C(C)(C)O)cn2nc(NCc3cccc(Cl)c3)nc12 (single isomer, unassigned) [Example 66, {2-[(3-Chlorobenzyl)amino]-8-methoxy[1,2,4]triazolo[1,5-a]pyridin-6-yl}[5-(2-hydroxypropan-2-yl)-2,2-dimethylmorpholin-4-yl]methanone] | 25 nM | 24 nM
COc1cc(C(=O)N2CC(C)(C)OCC2C2(O)CC2)cn2nc(NCc3cccc(Cl)c3)nc12 (single isomer, unassigned) [Example 67, {2-[(3-Chlorobenzyl)amino]-8-methoxy[1,2,4]triazolo[1,5-a]pyridin-6-yl}[5-(1-hydroxycyclopropyl)-2,2-dimethylmorpholin-4-yl]methanone] | 48 nM | 90 nM
COc1cc(C(=O)N2CC(C)(C)OCC2C(C)O)cn2nc(NCc3cccc(Cl)c3)nc12 (single isomer, unassigned) [Example 68, {2-[(3-Chlorobenzyl)amino]-8-methoxy[1,2,4]triazolo[1,5-a]pyridin-6-yl}[5-(1-hydroxyethyl)-2,2-dimethylmorpholin-4-yl]methanone] | 49 nM | 106 nM
CC[C@@H]1COC(C)(CCO)CN1C(=O)c1cc(OC)c2nc(NCc3cccc(Cl)c3)nn2c1 (single isomer, unassigned) [Example 70] | 6.1 nM | 35 nM
